Values joined by “and” are separate entries in the source; they are usually repeats but may differ in a detail not shown here. Identical values can stand only once.
Legend:
[1] = molecular target: Methyl-CpG-binding domain protein 4 (Homo sapiens) (UniProt O95243); details: Hit No;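 further: MBD4 activity read as fluorescence at 594 nm from cleavage and release of a quenched duplex DNA oligonucleotide, with APE1 coupled to incise the strand and raise turnover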
[2] = molecular target: N-glycosylase/DNA lyase (Homo sapiens) (UniProt O15527); details: Compound Concentration 10.0 uM, Hit No;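 further: OGG1 cleavage of a quenched duplex DNA oligonucleotide, coupled to APE1 for strand incision, read as fluorescence at 594 nm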
Description: Inhibition of OGG1 by quantifying inhibition of OGG1-mediated cleavage and dissociation of quenched duplex DNA oligonucleotides, measured as fluorescence at 594 nm. To generate a functional strand incision and increase turn-over this assay is coupled to APE1.

[3] = molecular target: T1, Endonuclease III-like protein 1 (Homo sapiens) (UniProt P78549); details: Hit No;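 further: enzyme assay tracking NTHL1 cutting and release of a quenched double-stranded DNA oligo substrate, read as fluorescence at 594 nm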
T1 sequence (whole entry): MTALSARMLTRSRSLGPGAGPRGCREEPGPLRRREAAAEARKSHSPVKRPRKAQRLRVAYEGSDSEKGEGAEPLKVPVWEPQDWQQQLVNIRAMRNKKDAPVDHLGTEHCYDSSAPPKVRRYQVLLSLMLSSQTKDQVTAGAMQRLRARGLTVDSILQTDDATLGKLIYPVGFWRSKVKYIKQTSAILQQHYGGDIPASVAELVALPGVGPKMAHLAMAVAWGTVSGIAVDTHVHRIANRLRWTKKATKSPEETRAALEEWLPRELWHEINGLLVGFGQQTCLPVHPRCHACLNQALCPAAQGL

[4] = molecular target: T2, Single-strand selective monofunctional uracil DNA glycosylase (Homo sapiens) (UniProt Q53HV7); details: Hit No;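 further: enzymatic SMUG1 assay coupled with APE1, reading fluorescence at 594 nm released when a quenched double-stranded DNA oligonucleotide substrate is cleaved and separated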
T2 sequence (whole entry): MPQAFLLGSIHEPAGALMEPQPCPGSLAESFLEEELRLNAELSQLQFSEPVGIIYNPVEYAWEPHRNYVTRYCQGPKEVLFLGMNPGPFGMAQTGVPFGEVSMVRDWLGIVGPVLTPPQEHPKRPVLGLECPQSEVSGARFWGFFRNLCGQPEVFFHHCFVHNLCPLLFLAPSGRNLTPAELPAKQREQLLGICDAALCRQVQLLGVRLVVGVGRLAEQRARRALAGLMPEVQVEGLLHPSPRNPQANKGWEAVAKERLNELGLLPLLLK

[5] = molecular target: Endonuclease 8-like 1 (Homo sapiens) (UniProt Q96FI4); details: Hit No;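 further: fluorescence at 594 nm from quenched duplex DNA oligonucleotides released by NEIL1 cleavage and strand separation, reported as reduction of this enzyme activity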
[6] = molecular target: G/T mismatch-specific thymine DNA glycosylase (Homo sapiens) (UniProt Q13569); details: Hit No;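 further: human TDG cleavage of quenched duplex DNA oligonucleotides coupled to APE1, strand release read as fluorescence at 594 nm, inhibition of TDG activity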
[7] = molecular target: Uracil-DNA glycosylase (Homo sapiens) (UniProt P13051); details: Hit No;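 further: UNG excision on a quenched double-stranded DNA oligo probe, with APE1 added for strand incision and turnover, read as fluorescence at 594 nm as strands separate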
[8] = molecular target: T3, Endonuclease 8-like 2 (Homo sapiens) (UniProt Q969S2); details: Compound Concentration 10.0 uM, Hit No;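 further: fluorescence at 594 nm reports NEIL2 cutting and release of a quenched double-stranded DNA oligo substrate, reduced signal read as inhibition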
T3 sequence (whole entry): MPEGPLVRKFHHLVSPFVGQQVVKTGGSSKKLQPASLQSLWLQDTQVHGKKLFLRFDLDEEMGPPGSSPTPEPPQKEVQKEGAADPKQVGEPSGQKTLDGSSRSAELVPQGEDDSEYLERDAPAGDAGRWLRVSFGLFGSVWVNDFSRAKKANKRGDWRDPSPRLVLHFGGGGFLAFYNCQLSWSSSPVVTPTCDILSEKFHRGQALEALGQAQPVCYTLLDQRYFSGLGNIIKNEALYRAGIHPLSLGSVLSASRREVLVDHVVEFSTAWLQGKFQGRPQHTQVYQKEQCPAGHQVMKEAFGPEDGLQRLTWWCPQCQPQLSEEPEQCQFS
Description: Inhibition of NEIL2 by quantifying inhibition of NEIL2-mediated cleavage and dissociation of quenched duplex DNA oligonucleotides, measured as fluorescence at 594 nm.

Chain of G/T mismatch-specific thymine DNA glycosylase (Homo sapiens) (Q13569 whole entry): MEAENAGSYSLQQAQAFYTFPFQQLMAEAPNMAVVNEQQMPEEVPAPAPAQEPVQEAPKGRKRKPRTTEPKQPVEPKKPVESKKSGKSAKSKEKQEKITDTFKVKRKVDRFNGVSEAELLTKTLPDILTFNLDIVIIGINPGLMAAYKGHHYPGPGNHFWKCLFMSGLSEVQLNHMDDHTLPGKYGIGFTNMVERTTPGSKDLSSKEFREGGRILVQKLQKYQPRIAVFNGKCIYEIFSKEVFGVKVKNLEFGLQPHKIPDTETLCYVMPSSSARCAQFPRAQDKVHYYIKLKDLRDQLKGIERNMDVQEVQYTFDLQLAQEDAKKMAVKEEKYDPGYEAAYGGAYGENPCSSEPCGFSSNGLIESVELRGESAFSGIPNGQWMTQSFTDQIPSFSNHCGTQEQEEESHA
Chain of N-glycosylase/DNA lyase (Homo sapiens) (O15527 whole entry): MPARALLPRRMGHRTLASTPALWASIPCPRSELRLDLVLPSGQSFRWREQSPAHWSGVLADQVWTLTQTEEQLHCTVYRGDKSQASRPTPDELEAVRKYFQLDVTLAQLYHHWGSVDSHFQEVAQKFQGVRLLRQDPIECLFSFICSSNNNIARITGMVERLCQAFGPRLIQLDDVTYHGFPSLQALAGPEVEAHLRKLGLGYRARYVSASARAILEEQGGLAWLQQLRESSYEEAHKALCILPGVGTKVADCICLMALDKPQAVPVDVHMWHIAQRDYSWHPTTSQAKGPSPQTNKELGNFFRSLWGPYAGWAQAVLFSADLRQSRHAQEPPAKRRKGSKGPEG
Chain of Endonuclease 8-like 1 (Homo sapiens) (Q96FI4 whole entry): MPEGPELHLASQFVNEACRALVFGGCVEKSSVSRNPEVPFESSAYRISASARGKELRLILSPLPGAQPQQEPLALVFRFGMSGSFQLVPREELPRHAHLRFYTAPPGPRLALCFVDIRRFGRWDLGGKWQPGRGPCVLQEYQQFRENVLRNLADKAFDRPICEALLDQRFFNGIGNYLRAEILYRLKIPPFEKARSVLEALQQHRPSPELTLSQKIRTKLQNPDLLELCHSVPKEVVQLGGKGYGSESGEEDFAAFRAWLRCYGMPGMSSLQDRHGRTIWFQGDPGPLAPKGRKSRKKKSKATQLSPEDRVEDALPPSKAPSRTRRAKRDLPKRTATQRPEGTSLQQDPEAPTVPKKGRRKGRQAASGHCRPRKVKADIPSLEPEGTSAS
Chain of Methyl-CpG-binding domain protein 4 (Homo sapiens) (O95243 whole entry, the tested form may be a part): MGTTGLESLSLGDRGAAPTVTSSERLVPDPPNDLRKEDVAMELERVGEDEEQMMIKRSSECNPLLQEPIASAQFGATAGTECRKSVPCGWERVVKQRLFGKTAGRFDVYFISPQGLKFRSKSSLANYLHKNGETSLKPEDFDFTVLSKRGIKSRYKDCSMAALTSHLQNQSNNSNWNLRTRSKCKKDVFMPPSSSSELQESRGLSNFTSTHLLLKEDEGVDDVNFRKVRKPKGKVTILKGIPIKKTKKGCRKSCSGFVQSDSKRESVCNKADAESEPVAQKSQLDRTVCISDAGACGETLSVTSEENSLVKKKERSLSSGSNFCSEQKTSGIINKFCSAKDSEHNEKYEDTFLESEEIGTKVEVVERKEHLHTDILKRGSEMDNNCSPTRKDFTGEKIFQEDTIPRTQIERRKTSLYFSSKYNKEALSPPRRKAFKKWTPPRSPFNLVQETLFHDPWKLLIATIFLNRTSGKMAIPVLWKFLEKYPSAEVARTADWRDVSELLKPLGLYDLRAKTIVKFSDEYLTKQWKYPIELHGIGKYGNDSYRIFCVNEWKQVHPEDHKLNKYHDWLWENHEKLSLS
Chain of Uracil-DNA glycosylase (Homo sapiens) (P13051 whole entry): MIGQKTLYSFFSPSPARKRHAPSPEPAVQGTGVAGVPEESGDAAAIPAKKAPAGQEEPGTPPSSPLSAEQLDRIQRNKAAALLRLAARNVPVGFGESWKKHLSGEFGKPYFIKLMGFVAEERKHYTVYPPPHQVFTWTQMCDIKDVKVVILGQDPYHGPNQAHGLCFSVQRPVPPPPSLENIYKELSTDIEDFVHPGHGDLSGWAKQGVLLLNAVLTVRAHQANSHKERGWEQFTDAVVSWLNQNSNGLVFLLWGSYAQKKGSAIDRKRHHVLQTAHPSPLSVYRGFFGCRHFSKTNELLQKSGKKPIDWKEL

SMILES	inhibition ([1]; Compound Concentration 10.0 uM)	inhibition [2]	inhibition ([3]; Compound Concentration 10.0 uM)	inhibition ([4]; Compound Concentration 10.0 uM)	inhibition ([5]; Compound Concentration 10.0 uM)	inhibition ([6]; Compound Concentration 10.0 uM)	inhibition ([7]; Compound Concentration 10.0 uM)	inhibition [8]	inhibition ([1]; Compound Concentration 1.0 uM)	inhibition ([3]; Compound Concentration 1.0 uM)	inhibition ([4]; Compound Concentration 1.0 uM)	inhibition ([7]; Compound Concentration 1.0 uM)	inhibition ([5]; Compound Concentration 1.0 uM)	inhibition ([6]; Compound Concentration 1.0 uM)
CN(C)C(=O)c1sc2nc(N3CCC(S(C)(=O)=O)CC3)cc(C(F)(F)F)c2c1N	1.76%	-1.24%	2.05%	-2.07%	-3.24%	-5.21%								
C[C@H](NC(=O)c1cnc2n1[C@](C)(Cc1ccc(C#N)cc1)C(=O)N2c1cc(Cl)c(F)c(Cl)c1)C(=O)NC1(c2ccccn2)CC1	60.9%		-4.57%	22.8%	5.16%	52.5%	7.8%	-4.83%						
Cc1cc2c(-c3ccco3)cnc(N[C@@H]3CCN(C)C[C@H]3C(=O)NC3CCCCC3)c2[nH]c1=O	58.5%		-9.18%			33.3%	-3.36%							
CO[C@@H](C)c1c(Nc2ccc([C@@H](N(C)C(=O)C3CCS(=O)(=O)CC3)C(F)(F)F)cc2)cnc2cc(Cl)nn12	93.9%		-9.83%	13.4%	-6.35%	42.7%	0.795%	0.0213%						
COc1ccc(NS(=O)(=O)c2sc3ccc(Cl)cc3c2C)cc1N1CCNCC1		-6.55%	-3.94%	12%	16%	18%	-3.02%	1.51%						
COc1cc(Nc2nccc(-c3cnn4nc(OC)ccc34)n2)cc(C(F)(F)F)c1		8.51%	0.785%	1.75%	11.1%	8.41%	-0.0969%	-0.842%						
Cn1cc(-c2ccc3occ(-c4cccc(-c5ccncc5)c4)c3n2)cn1	-1.5%		-8.98%	13.1%	-1.18%	42.6%	-1.77%	-5.69%						
OCCN1CCN(CCCN2c3ccccc3Sc3ccc(Cl)cc32)CC1		-8.6%	3.39%	-0.808%	17.1%	3.7%	-5.33%	12.5%						
C[C@@H]1CN(c2nccc(Nc3ccc4c(c3)n(CCC(C)(C)O)c(=O)n4C)n2)C[C@H](C)C1(F)F	56.2%		-0.63%	7.55%	-3.77%	98.6%	5.07%	-8.14%						
S=C(NCCCc1c[nH]cn1)NCCCN(Cc1ccc(Cl)c(Cl)c1)c1ccc(Br)cn1		-8.08% and 0.522%	7.05%	0.354%	-8.51% and -1.24%	-1.74%	-7.82% and -8.52%	-7.72% and 0.265%						
C[C@H]1[C@H]2CC[C@H]3[C@@H]4CC=C5C[C@@H](N(C)C)CC[C@]5(C)[C@H]4CC[C@]23CN1C		-2.15%	7.05%	4.86%	-0.649%	5.99%	-8.6%	-7.72%						
CC1=C(C(=O)Nc2cc3cn[nH]c3cc2F)C(c2ccc(C(F)(F)F)cc2)CC(=O)N1 (stereo not drawn)	18%		-2.7%	22.4%	4.1%	34.3%	7.25%	3.2%						
CCNC1(C(N)=O)CCN(c2ncnc3c2nc(-c2ccccc2Cl)n3-c2ccc(Cl)cc2)CC1		-3.75%	17.3%	12.2%	1.13%	11.7%	-6.19%	3.76%						
N#Cc1ccc(Cn2ccc(NC(=O)Cc3ccc(C4(C(F)(F)F)CC4)cc3)n2)nc1		-2.87%	17.1%	-0.24%	4.9%	-8.44%	-0.478%	-3.66%						
COc1cc(C(=O)O)ncc1C#Cc1ccccc1NS(=O)(=O)c1cccc2c(N(C)C)ccnc12	66.6%		-8.52%	6.29%	-0.29%	46.3%	2.52%	6.91%						
CCOc1cn(-c2ccc(F)cc2C)nc1C(=O)Nc1ccc(Oc2ccnc3cc(OC)c(OC)cc23)c(F)c1									31.6%	-2%	21.7%	1.39%	0.138%	46.5%
Cc1c(P(=S)(c2ccccc2)c2ccccc2)n2ccccc2[n+]1C/C=C/c1ccccc1		1.08%	23.9%	-6.48%	11.1%	35.9%	-7.24%	-6.97%						
CCC1(C2=NCCN2)Cc2ccccc2O1 (stereo not drawn)	3.23%	-0.183%	1.19%		-9.99%	2.85%	-0.713%	-5.22%						
CN1C[C@H](C(=O)N[C@]2(C)O[C@@]3(O)[C@@H]4CCCN4C(=O)[C@H](Cc4ccccc4)N3C2=O)C[C@@H]2c3cccc4[nH]cc(c34)C[C@H]21		-8.52%	15.8%	0.306%	9.88%	7.37%	-3.4%	7%						
CC1=C2C[C@H]3[C@@H](CC=C4C[C@@H](O)CC[C@@]43C)[C@@H]2CC[C@]12O[C@@H]1C[C@H](C)CN[C@H]1[C@H]2C		-3.73%	-6.14%	2.68%	-3.61%	5.99%	-9.72%	1.26%						
CN(C)C(=O)C(CCN1CCC(O)(c2ccc(Cl)cc2)CC1)(c1ccccc1)c1ccccc1		-5.28%	28.3%	-1.44%	7.8%	5.3%	-5.39%	7.75%						
Cn1ncnc1COc1nn2c(-c3c(F)cccc3F)nnc2cc1C1CCC1	-5.71%		22.9%	1.23%	7.71%	15.4%	-7.24%	-3.41%						
CN(C)S(=O)(=O)c1ccc(NC(=S)N2CCC(C(O)(c3ccccc3)c3ccccc3)CC2)cc1		-3.65%	16.6%	3.26%	-0.797%	-1.66%	-7.47%	0.265%						
N#CC1(c2ccccn2)CCN(Cc2cc(C(=O)O)c(=O)n3ccccc23)CC1	93%	-3.75%	-9.18%		-0.139%	45.8%	1.66%	0.531%						
COc1ccc([C@@H]2Sc3ccccc3N(CCN(C)C)C(=O)[C@@H]2OC(C)=O)cc1	-5.04%		30.3%	0.325%	3.71%	-1.73%	-4.36%							
C[C@H](Cc1cc2c(c(C(N)=O)c1)N(CCCO)CC2)NCCOc1ccccc1OCC(F)(F)F		-6.28%	-1.01%	1.13%	-4.21%	2.34%	-9.87%	-1.48%						
CC(=O)c1ccc2c(c1)[C@@H]1C=CC[C@@H]1[C@H](c1cc3c(cc1Br)OCO3)N2		2.12%	11.4%	5.25%	1.72%	13.5%	-3.58%	9.25%						
CCOc1cc(N2CCC(O)CC2)ccc1Nc1ncc2c(n1)N(C1CCCC1)CCC(=O)N2C	-5.19%		-6.19%	12.4%	-5.28%	36.7%	-0.0214%							
CN(C(=O)Cc1ccc(Cl)c(Cl)c1)C(CN1CCCC1)c1cccc(OCC(=O)O)c1 (stereo not drawn)		-6.71%	13.7%	-2.65%	-0.5%	-1.52%	-7.78%	-9.22%						
O=C1O[C@]2(CC[C@H](C(=O)Nc3ccn(-c4ccccc4F)n3)CC2)c2cnccc21		-9.12%	-1.74%	3.16%	-8.51%	1.4%	-8.76%	-7.47%						

— ChEMBL document CHEMBL5665443, “Enzyme Inhibitor Single Concentration assay results for EUbOPEN Chemogenomics Library” (2024)
